In PMC12615518, “Discovery of CRBN-recruiting PROTAC degraders of the METTL3-METTL14 complex” (Medicinal Chemistry Research, 2025):
Like-named read-outs stand apart in the source and are kept apart here.

Columns and labels:
METTL3 [1] = system: METTL3; design: method as in PMID 32159918; details: read-out: IC50 METTL3 activity, reader-based HTRF assay; cited from earlier work
METTL3 [2] = system: METTL3; design: method as in PMID 34431664; details: read-out: IC50 METTL3 inhibition, enzyme-based assays; cited from earlier work
METTL14 = biological target: T1, METTL14 (Homo sapiens, UniProt Q9HCE5); test: Immunoblotting (Western blot) degradation of METTL14 in MV4-11 cells; type: cell-based; details: MV4-11 cells, 1 µM, 24 h, Fig. 4A right
T1 construct: Following treatment, total cellular proteins were extracted using RIPA buffer; endogenous in cells; host or cells: MV4-11 (MV4.11) human AML cells, ATCC
T1 sequence (Q9HCE5 whole entry): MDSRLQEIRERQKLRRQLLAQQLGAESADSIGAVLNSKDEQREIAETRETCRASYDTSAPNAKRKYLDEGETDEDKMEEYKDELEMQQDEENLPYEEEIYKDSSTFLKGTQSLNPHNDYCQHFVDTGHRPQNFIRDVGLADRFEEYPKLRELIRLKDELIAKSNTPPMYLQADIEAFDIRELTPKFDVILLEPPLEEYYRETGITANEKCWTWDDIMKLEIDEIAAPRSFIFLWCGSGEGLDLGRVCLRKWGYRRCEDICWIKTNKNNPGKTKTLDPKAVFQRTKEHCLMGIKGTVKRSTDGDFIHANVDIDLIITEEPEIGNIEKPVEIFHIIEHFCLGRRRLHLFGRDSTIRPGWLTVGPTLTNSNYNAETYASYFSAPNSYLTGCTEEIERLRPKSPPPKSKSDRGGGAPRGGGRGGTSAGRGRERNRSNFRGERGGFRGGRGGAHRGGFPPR
T1 sequence (Q86U44 2-580 partner): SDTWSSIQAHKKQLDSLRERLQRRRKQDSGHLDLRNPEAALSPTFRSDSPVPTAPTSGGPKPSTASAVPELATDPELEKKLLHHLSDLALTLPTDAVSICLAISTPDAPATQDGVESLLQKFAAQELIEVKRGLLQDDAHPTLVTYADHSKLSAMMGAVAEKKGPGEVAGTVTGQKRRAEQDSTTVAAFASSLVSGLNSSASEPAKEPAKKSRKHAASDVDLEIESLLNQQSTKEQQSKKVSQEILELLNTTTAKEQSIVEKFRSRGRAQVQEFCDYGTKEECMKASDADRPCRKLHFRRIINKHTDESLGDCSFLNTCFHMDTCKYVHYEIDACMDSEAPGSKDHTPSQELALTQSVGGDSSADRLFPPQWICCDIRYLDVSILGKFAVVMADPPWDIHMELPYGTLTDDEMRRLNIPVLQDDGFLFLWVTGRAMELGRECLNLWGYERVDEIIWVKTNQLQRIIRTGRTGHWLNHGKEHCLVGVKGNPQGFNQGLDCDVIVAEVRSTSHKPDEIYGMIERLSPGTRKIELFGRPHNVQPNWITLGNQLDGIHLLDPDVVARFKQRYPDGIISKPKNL
Procedure: (§1) All cell lines were maintained under standard conditions in a humidified atmosphere at 37 °C with 5% CO₂.
(§2) Western Blot Analysis: Following treatment, total cellular proteins were extracted using RIPA buffer (Auragene, Changsha, China). […] After washing, membranes were incubated with horseradish peroxidase (HRP)-conjugated secondary antibodies (anti-rabbit or anti-mouse IgG; 1:5000) for 2 hours at room temperature. Protein bands were visualized using an enhanced chemiluminescence (ECL) detection kit (Amersham Pharmacia), following the manufacturer's protocol. Band intensities were quantified using ImageJ software and normalized to ACTIN as a loading control. Data was analyzed using GraphPad Prism 9.

METTL3 [3] = biological target: METTL3 (Homo sapiens, UniProt Q86U44); test: Immunoblotting (Western blot) degradation of METTL3 in MV4-11 cells; type: cell-based; design: Following treatment, total cellular proteins were extracted using RIPA buffer; endogenous in cells; host or cells: MV4-11 (MV4.11) human AML cells, ATCC; details: MV4-11 cells, 1 µM, 24 h, Fig. 4A right
Chain of METTL3 (Homo sapiens, UniProt Q86U44) (Q86U44 2-580 limits assumed): as the sequence (Q86U44 2-580 partner) above
Chain of METTL3 (Homo sapiens, UniProt Q86U44) (Q9HCE5 whole entry partner): as the sequence (Q9HCE5 whole entry) above
Procedure: as §1, §2

[4] = system: primary mouse MLL-AF9/Flt3^Itd/+ model; design: method as in PMID 33902106; details: cited from earlier work
METTL3/14 [5] = biological target: METTL3/14; design: method as in PMID 33902106; details: read-out: METTL3/14 binding affinity (Kd); cited from earlier work
[6] = system: human AML patient-derived xenografts (PDX) models; design: method as in PMID 33902106; details: cited from earlier work
METTL3/14 [7] = system: METTL3/14; design: method as in PMID 33902106; details: read-out: IC50 METTL3/14 catalytic activity inhibition; cited from earlier work

Q: For `Nc1ncnc2c1ncn2[C@@H]1O[C@H](C(=O)NCCCCN2CCCC2)[C@@H](O)[C@H]1O` [Compound 1], which IC50 (METTL3 [1]) is on record?
A: 8700 nM

Q: With `CNc1cc(N2CCC3(CC2)CN(c2cc(F)c(CN4CCC(C)(C)CC4)cc2F)CC(=O)N3)ncn1` [UZH2, reference compound] as the compound, how does the IC50 (METTL3 [2]) read?
A: 5 nM

Q: And the “degradation of METTL14 at 1 µM (in words)” value (METTL14)?
A: not degraded

Q: What about the “degradation of METTL3 at 1 µM (in words)” value (METTL3 [3]) of the same compound?
A: not degraded

Q: With STM2457 as the compound, how does the anti-leukemic effect [4] read?
A: anti-leukemic effect

Q: What about the Kd (METTL3/14 [5]) of the same compound?
A: 1.4 nM

Q: What about the anti-leukemic effect [6] of the same compound?
A: anti-leukemic effect

Q: What about the IC50 (METTL3/14 [7]) of the same compound?
A: 16.9 nM
